# Results reported in patent publication US11867690B2, “Identification of functional cell states” ([…] AG, priority 2014, dated 2024).
# Entries after “also recorded” stand apart in the source; their conditions may differ.
# Legend:
# HL-60 cells [1] = assay: Plate 1b: mitochondrial membrane potential (MMP) measured with JC-9 by flow cytometry; type: cell-based, human
# Procedure: Cells were deposited into 384 well plates (1×10^6 cells in 40 μl tissue culture media), and serial dilutions of test compounds (or vehicle in the case of controls) were deposited in individual wells using standard robotic techniques. Compound deposition and dilution was performed by BIOMEK FX (5 or 10-step dilutions from 100 to 0.005 μM). Dilutions were prepared from stock solutions of compounds dissolved initially in 100% DMSO. Final volume deposited into each well is 2 μl of each compound dilution (compounds are in a final concentration of 1% DMSO). After incubation in a tissue culture incubator (5% CO2 at 37° C.) for varying periods of time (typically 4 hours), plates were centrifuged at room temperature, followed by removal of 20 μl supernatant fluid. After vibration of the plate to re-suspend cells, a dye mix (Plate 1a Monobromobimane, CALCEIN AM, MITOSOX™ and SYTOSOX™ RED; plate 1b VYBRANVIOLET™ Live Cell Cycle dye, JC-9, and SYTOSOX™ RED) was added in a total volume of 20 μl, followed by an additional mixing step. Plates were returned to the tissue culture incubator (5% CO2 at 37° C.) for an additional 15 min (plate 1a) or 30 min (plate 1b), followed by immediate analysis using the […]-CYAN™.
# Measurements identical to those described in Example 2 above were made using a second combination of dyes: • (1) VYBRANVIOLET™ to measure cell cycle in live cells; • (2) JC-9 to measure mitochondrial membrane potential (MMP); and • (3) SYTOXRED™ (as described herein above).
# The measurement of mitochondrial membrane potential (MMP) with JC-9 was performed with two independent fluorescence channels (green and red fluorescence signals), as changes in MMP cause aggregation of the dye, with different fluorescence emission by the aggregated versus non-aggregated dye molecules. […] At higher valinomycin concentrations, red fluorescence […]. A unique aspect of this assay is that it correlates changes in MMP (JC-9) and cell death (SYTOXRED™) with the phases of the cell cycle (G1, S, and G2M).
# An identical study to the one described before was conducted with exposing HL60 cells exposed to 1.23 μM idarubicin, an analog of daunorubicin which inserts into DNA and prevents it from unwinding during DNA replication and arrests cell division.
# HL-60 cells [2] = assay: Cell physiology assay plate 1a: flow cytometry with MBBR, CALCEIN AM, MITOSOX RED and SYTOXRED; type: cell-based, human
# Procedure: Cells were deposited into 384 well plates (1×10^6 cells in 40 μl tissue culture media), and serial dilutions of test compounds (or vehicle in the case of controls) were deposited in individual wells using standard robotic techniques. Compound deposition and dilution was performed by BIOMEK FX (5 or 10-step dilutions from 100 to 0.005 μM). Dilutions were prepared from stock solutions of compounds dissolved initially in 100% DMSO. Final volume deposited into each well is 2 μl of each compound dilution (compounds are in a final concentration of 1% DMSO). After incubation in a tissue culture incubator (5% CO2 at 37° C.) for varying periods of time (typically 4 hours), plates were centrifuged at room temperature, followed by removal of 20 μl supernatant fluid. After vibration of the plate to re-suspend cells, a dye mix (Plate 1a Monobromobimane, CALCEIN AM, MITOSOX™ and SYTOSOX™ RED; plate 1b VYBRANVIOLET™ Live Cell Cycle dye, JC-9, and SYTOSOX™ RED) was added in a total volume of 20 μl, followed by an additional mixing step.
# Each well of the 384-well plate was sampled with a 6 second sip time, plus 1 second delay between wells, resulting in a total read time for each plate of approximately 45 minutes. Data was acquired using a CYAN™ flow cytometer, with the […]™ software used to compile files for each well on an individual plate using an FCS format. Data for each plate was subsequently analyzed for several quality assurance parameters (total number of events per well, numbers of events associated with morphologically normal events, number of dead cells), as described below.
# Flow cytometric analyses of intrinsic cell properties (forward light scatter and light scattered orthogonal to the laser beam) and fluorescence signals derived from the dyes listed in Table 1 was carried out for plates 1a and 1b.
# Chem. Soc. […] Technol. […] MITOSOX™ RED is a compound that can diffuse into viable cells and reacts with superoxide anion species, particularly products of mitochondrial respiration; conditions such as cell stress can cause mitochondria to respond (sometimes rapidly) by increasing respiration and/or release superoxide anions; and • (3) SYTOXRED™ to measure cell viability (loss of nuclear membrane integrity). SYTOXRED™ is a high-affinity DNA stain that can only pass through the cytoplasmic and nuclear membranes of cells which have lost the integrity of both membranes; thus, brightly fluorescent cells are dead.
# [3] = test system: human peripheral blood monocytes; assay: Kinetics of signal transduction responses to LPS in whole blood monocytes by flow cytometry; type: cell-based; settings: LPS alone
# Source text: Herein, specific dyes that monitor cell membrane permeability (marker for cell death), nuclear membrane permeability (marker for cell death), signal transduction pathways implicated in DNA damage (phospho-Histone H2A, phospho-ATM/ATR, phospho-p53), signal transduction pathways implicated in inflammation (e.g., NF-kB), signal transduction via the MAP kinase pathways (ERK, SAP/JNK, p38), signal transduction via the PI3 Kinase pathway (Akt, GSK3B, RS6K, S6), early apoptotic pathways (e.g., annexin V), mid apoptotic pathways (e.g., cleaved caspase), late apoptotic pathways (e.g., PARP/DNA fragmentation), etc. may be employed.
# [4] = test system: phosphorylation of the downstream STAT5 target in K562 cells; assay: Phosphorylation of STAT5 in K562 cells by flow cytometry; type: cell-based; settings: Homo sapiens, 0.5 h, 30 min
# Procedure: Cells were deposited onto dilutions of test compounds deposited into individual wells of […], as indicated above. Following incubation in a tissue culture incubator (5% CO2 at 37° C.) for 30 minutes to 12 hr, the cells were pelleted by centrifugation, the supernatant was removed, the cells were re-suspended by vibration in the remaining supernatant fluid, and 50 μl of fixative (1.2% formaldehyde in PBS) was added. Following 15 min incubation (at 37° C.), cells were pelleted by centrifugation, supernatant removed, and the cells were suspended by vibrating the plate.
# Cell were permeabilized by adding 150 μl cold absolute methanol, followed by incubation at 4° C. for 15 minutes. Permeabilized cells were centrifuged, supernatant removed, and cells were washed three times with cold (4° C.) PBS containing 4% FBS. Following the final wash, cells were centrifuged, the supernatant was removed, and cells were re-suspended in an antibody cocktail (total volume 20 μl) appropriate for that experiment.
# [5] = 33 μM, cells with normal morphology
# [6] = 33 μM, population with altered morphology
compound,measurement,setting,value
CC(C)[C@@H]1NC(=O)[C@H](C)OC(=O)[C@@H](C(C)C)NC(=O)[C@@H](C(C)C)OC(=O)[C@H](C(C)C)NC(=O)[C@H](C)OC(=O)[C@@H](C(C)C)NC(=O)[C@@H](C(C)C)OC(=O)[C@H](C(C)C)NC(=O)[C@H](C)OC(=O)[C@@H](C(C)C)NC(=O)[C@@H](C(C)C)OC1=O [valinomycin],concentration at peak of JC-9 red and green fluorescence,HL-60 cells [1]; FIG. 6A legend,~0.045 µM
same,concentration at peak JC-9 green fluorescence,"HL-60 cells [1]; FIG. 6A, Example 4A",~0.05 µM
same,JC-9 red and green fluorescence,"HL-60 cells [1]; with increasing concentration, FIG. 6A",initially increase; also recorded: significantly higher
CO/C(=C/C(N)=O)[C@H](C)[C@H](/C=C/c1csc(-c2csc([C@@H](C)/C=C/C=C/C(C)C)n2)n1)OC [myxothiazol],CALCEIN AM,HL-60 cells [2]; 100 μM,decrease
same,GSH (MBBR),HL-60 cells [2]; 100 μM,decrease
same,ROS (MITOSOX RED),HL-60 cells [2]; 100 μM,increase
same,"SYTOXRED (cytoplasmic and nuclear membrane permeability, viability)",HL-60 cells [2]; 100 μM,increase
same,cell morphology (light scatter),HL-60 cells [2]; 100 μM,significant change in cell morphology
same,"SYTOXRED (cytoplasmic and nuclear membrane permeability, viability)","HL-60 cells [2]; 100 μM, listed as myxothiozol",perturbs cytoplasmic and nuclear membrane permeability (viability)
lipopolysaccharide [LPS],"ERK, Akt and S6 (phosphorylation)",[3],activated; also recorded: activates (phosphorylates)
same,Iκ kinase (proteasomal degradation of IκBα),[3],activates
CC(=O)[C@]1(O)Cc2c(O)c3c(c(O)c2[C@@H](O[C@H]2C[C@H](N)[C@H](O)[C@H](C)O2)C1)C(=O)c1ccccc1C3=O [idarubicin],JC-9 red fluorescence versus untreated control cells,HL-60 cells [1]; 1.23 μM,significantly higher
same,JC-9 green fluorescence,HL-60 cells [1]; FIG. 6B,does not increase
CNCCC(Oc1ccc(C(F)(F)F)cc1)c1ccccc1 (centres unmarked) [fluoxetine],CALCEIN AM,HL-60 cells [2]; 100 μM,reduced CALCEIN AM
same,GSH (MBBR),HL-60 cells [2]; 100 μM,reduced GSH
same,ROS (MITOSOX RED),HL-60 cells [2]; 100 μM,increased ROS
same,cell death in relation to cell cycle (SYTOXRED histogram),HL-60 cells [2]; 100 μM,cells are dying throughout the cell cycle
"N#CC(C#N)=NNc1ccc(OC(F)(F)F)cc1 [FCCP, carbonyl cyanide-4-(trifluoromethoxy)phenylhydrazone]",CALCEIN AM,HL-60 cells [2]; [5],normal
same,GSH,HL-60 cells [2]; [5],normal
same,ROS,HL-60 cells [2]; [5],increased ROS
same,nuclear and cytoplasmic membranes (SYTOX Red uptake),HL-60 cells [2]; [5],intact nuclear and cytoplasmic membranes
same,CALCEIN,HL-60 cells [2]; [6],increased CALCEIN
same,GSH,HL-60 cells [2]; [6],reduced GSH
same,ROS,HL-60 cells [2]; [6],increased ROS
same,SYTOXRED,HL-60 cells [2]; [6],higher SYTOXRED™
"Cc1ccc(NC(=O)c2ccc(CN3CCN(C)CC3)cc2)cc1Nc1nccc(-c2cccnc2)n1 [GLEEVEC, imatinib]",inhibition at 2 µM,[4],> 95%
